Data taken from paper PMC4467917 (ACS infectious diseases, 2015).
Read-outs that look alike come from different tables or passages of the source.

Key:
xanthine oxidase [1] = molecular target: T1, xanthine oxidase (Mus musculus, UniProt Q00519); test: Effect of allopurinol predosing on PZA and POA exposure in CD-1 mice; settings: allopurinol pretreatment either 4 doses of 20 mg/kg or 1 dose of 40 mg/kg
[2] = Solubility of POA in aqueous media; format: physicochemical
[3] = female, rabbit, in vivo, po, 250 mg/kg
[4] = Plasma pharmacokinetics of oral PZA or POA in naïve guinea pigs
[5] = test system: acute intravenous infection; settings: administered at 2 to 5% in food; cited from earlier work
in vivo [6] = settings: female, CD-1, mouse, plasma, po, 150 mg/kg
in vivo [7] = settings: BALB/c, mouse, po, 150 mg/kg
[8] = not given; remark: listed apart in the source
[9] = Plasma pharmacokinetics of oral PZA or POA in naïve New Zealand white rabbits; format: in vivo, rabbit
[10] = format: in vivo, human; settings: for CmaxPZA: Korean subjects, PZA 22–30 mg/kg
xanthine oxidase [11] = test: Effect of allopurinol predosing on PZA and POA exposure in NZW rabbits; format: in vivo, rabbit; settings: for AUC: female, New Zealand white, rabbit, plasma, 40 mg/kg
[12] = C3HeB/FeJ, mouse, in vivo
[13] = not given; remark: listed apart in the source
[14] = test system: M. tuberculosis strains H37Rv and H37Ra; test: In vitro growth inhibitory assay in liquid medium; format: cell-based, Mycobacterium tuberculosis
[15] = Oral pharmacokinetics of POA in preclinical species; format: in vivo; settings: single oral POA dose; mice, guinea pigs and rabbits
xanthine oxidase [16] = molecular target: T1, xanthine oxidase; settings: female, CD-1, mouse, in vivo, po, 40 mg/kg
[17] = test system: M. tuberculosis H37Rv or H37Ra; test: Susceptibility on solid media; format: cell-based, Mycobacterium tuberculosis
[18] = cited from earlier work
in vivo [19] = settings: C3HeB/FeJ, mouse, po
[20] = Plasma pharmacokinetics of PZA and POA metabolite in uninfected marmosets
[21] = not given; remark: listed apart in the source
in vivo [22] = settings: female, New Zealand white (NZW), rabbit, po, 250 mg/kg
in vivo [23] = settings: female, C3HeB/FeJ, mouse, plasma, po, 150 mg/kg
[24] = female, Hartley, guinea pig, in vivo, po, 300 mg/kg
[25] = female, BALB/c, mouse, in vivo, po, 150 mg/kg
[26] = both, human, plasma, oral, 1500 mg
[27] = over a 24 h period, 14 TB patients, 1500 mg PZA, from PK model
[28] = female, New Zealand white, rabbit, plasma, po
[29] = both, human, plasma, po, 1500 mg

T1 sequence (Q00519 whole entry): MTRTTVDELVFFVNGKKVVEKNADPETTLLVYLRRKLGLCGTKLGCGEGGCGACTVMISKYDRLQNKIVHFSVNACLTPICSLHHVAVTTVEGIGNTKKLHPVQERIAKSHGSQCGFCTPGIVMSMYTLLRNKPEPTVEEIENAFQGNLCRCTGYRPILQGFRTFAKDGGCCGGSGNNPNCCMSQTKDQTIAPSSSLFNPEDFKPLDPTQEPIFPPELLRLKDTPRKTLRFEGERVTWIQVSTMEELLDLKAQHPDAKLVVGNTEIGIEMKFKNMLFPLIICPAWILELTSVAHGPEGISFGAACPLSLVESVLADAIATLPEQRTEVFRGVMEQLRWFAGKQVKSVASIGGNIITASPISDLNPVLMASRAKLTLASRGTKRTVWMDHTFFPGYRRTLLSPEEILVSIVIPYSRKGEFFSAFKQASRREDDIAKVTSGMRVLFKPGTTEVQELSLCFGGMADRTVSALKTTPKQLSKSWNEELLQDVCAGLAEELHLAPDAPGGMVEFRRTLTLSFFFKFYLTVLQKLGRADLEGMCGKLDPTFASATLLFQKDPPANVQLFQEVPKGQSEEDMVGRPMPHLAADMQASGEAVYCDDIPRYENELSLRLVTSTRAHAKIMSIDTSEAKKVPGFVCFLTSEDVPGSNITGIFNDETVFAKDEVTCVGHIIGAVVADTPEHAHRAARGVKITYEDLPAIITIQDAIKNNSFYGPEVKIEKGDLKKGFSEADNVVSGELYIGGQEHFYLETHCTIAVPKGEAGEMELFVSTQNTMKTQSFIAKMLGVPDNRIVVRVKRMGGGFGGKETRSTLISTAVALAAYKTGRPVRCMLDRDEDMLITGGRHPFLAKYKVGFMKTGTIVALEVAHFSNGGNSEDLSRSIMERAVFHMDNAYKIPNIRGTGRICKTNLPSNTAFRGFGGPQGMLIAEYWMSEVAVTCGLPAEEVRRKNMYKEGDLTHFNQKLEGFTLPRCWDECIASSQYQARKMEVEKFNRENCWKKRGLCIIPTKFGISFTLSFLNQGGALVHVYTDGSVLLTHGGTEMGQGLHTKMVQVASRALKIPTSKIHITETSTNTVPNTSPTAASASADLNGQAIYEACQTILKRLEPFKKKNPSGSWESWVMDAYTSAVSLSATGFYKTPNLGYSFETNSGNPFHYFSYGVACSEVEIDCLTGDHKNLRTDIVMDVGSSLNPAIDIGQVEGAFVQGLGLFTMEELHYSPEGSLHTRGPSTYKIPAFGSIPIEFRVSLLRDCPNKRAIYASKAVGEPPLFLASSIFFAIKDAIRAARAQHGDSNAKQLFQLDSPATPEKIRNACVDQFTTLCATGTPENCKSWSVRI

## O=C(O)c1cnc(O)cn1 [5-hydroxy-POA, 5-hydroxypyrazinoate]
Xanthine oxidase [1]
  change in 5-hydroxy-POA exposure: concomitant decrease

## O=C(O)c1cnccn1 [POA, pyrazinoic acid]
[2]
  solubility in aqueous media: poor solubility
[3]; New Zealand white (NZW)
  AUCPOA met (POA metabolite derived from dosing of PZA): 504 (139) µg·h/ml
  CmaxPOA met: 111 (27) µg/mL
[3]; New Zealand white
  AUCPOA/AUCPZA ratio: 1.70 (0.21)
[4]; [24]
  AUC: 449 µg·h/mL
[4]; naïve guinea pigs, single oral POA dose 300 mg/kg, average (SD)
  CmaxPOA: 165 (74) µg/mL
[5]
  efficacy in a mouse model of acute intravenous infection: lack of POA efficacy
In vivo [6]
  AUC: 136 µg·h/mL
In vivo [7]; female
  AUC: 287 µg·h/mL
other
  concentrations at 24 h post PZA dosing: below the limit of quantification
female, New Zealand White, rabbit, in vivo
  tissue-to-plasma ratios: 0.2 and 0.5
[8]; [25]
  AUCPOA met (POA metabolite derived from dosing of PZA): 131 (13) µg·h/ml
  AUCPOA/AUCPZA ratio: 0.38 (0.02)
  CmaxPOA met: 43 (10) µg/mL
[8]; naïve BalbC mice, single oral POA dose 150 mg/kg, average (SD)
  CmaxPOA: 155(33) µg/mL
[9]; female, New Zealand white, rabbit, plasma, po, 200 mg/kg
  AUC: 2010 µg·h/mL
[9]; naïve rabbits, single oral POA dose 200 mg/kg, average (SD)
  CmaxPOA: 244 (51) µg/mL
[10]; active TB patients
  POA/PZA exposure ratio in plasma: approximately 0.2
[10]; [26]
  clearance: 31.7 mL/min
[10]; [27]
  POA/PZA exposure ratio (range): 17–32%
  median POA/PZA exposure ratio: 19%
Xanthine oxidase [11]; rabbits, allopurinol 3 doses of 40 mg/kg followed by oral PZA 150 mg/kg
  effect of allopurinol predosing on POA exposure: no effect
[12]; po
  CLm/Fm, oral clearance of the POA metabolite: 2.18 (6) L/h/kg
  Vm/Fm, oral volume of distribution of the POA metabolite: 0.47 (13) L/kg
[12]; po, 150 mg/kg
  AUCPOA met (POA metabolite derived from dosing of PZA): 76 (16) µg·h/ml
  AUCPOA/AUCPZA ratio: 0.18 (0.02)
  CmaxPOA met: 16(5) µg/mL
[13]; naïve CD1 mice, single oral POA dose 150 mg/kg, average (SD)
  CmaxPOA: 102 (32) µg/mL
[14]; pH 5.5, 5.8 and 6.5, H37Ra and H37Rv
  potency relative to PZA in liquid medium: consistently more potent than PZA
[14]; various pH and inocula
  fold more potent than PZA in vitro: 2- to 4 fold
[15]
  oral bioavailability: orally bioavailable
Xanthine oxidase [16]
  fold increase in POA exposure: 12 fold
[17]
  potency relative to PZA on agar plates: twice as potent as PZA

## NC(=O)c1cnccn1 [PZA, pyrazinamide]
[18]; 1 to 2 h postdose
  “normal” peak plasma concentrations: 20 to 60 µg/mL
[18]; TB patients receiving a standard daily dose of 1500 mg PZA
  mean AUC: 380 to 625 µg·h/mL
In vivo [19]
  CL/F: 6.33 mL/min/kg
  Vd/F: 1.85 L/kg
In vivo [19]; 150 mg/kg
  AUC: 425 µg·h/mL
[3]; New Zealand white (NZW)
  CmaxPZA: 90 (35) µg/mL
[4]; [24]
  AUC: 342 µg·h/mL
  CL/F: 12.5 mL/min/kg
  Vd/F: 2.54 L/kg
  k el: 8.06e-05 s⁻¹
[4]; guinea pigs, PK model typical value (standard error NA)
  ka, absorption rate constant: 7.7 (NA) h^−1
[4]; naïve guinea pigs, calculated to achieve a target AUC of 450 mg·h/L
  human-equivalent PZA dose: 400 mg/kg
[4]; naïve guinea pigs, single oral PZA dose 300 mg/kg, average (SD)
  CmaxPZA: 179 (100) µg/mL
[20]; marmoset (Callithrix jacchus), in vivo, po, 125 mg/kg
  AUC: 743 µg·h/mL
[20]; marmosets, PK model typical value (standard error)
  ka, absorption rate constant: 0.81 (7) h^−1
[20]; monkey, in vivo, po, 125 mg/kg
  CL/F: 3.83 mL/min/kg
  Vd/F: 1.1 L/kg
  k el: 5.83e-05 s⁻¹
[20]; naïve marmosets, calculated to achieve a target AUC of 450 mg·h/L
  human-equivalent PZA dose: 100 mg/kg
[20]; naïve marmosets, single oral PZA dose 125 mg/kg, average (SD)
  CmaxPZA: 80 (47) µg/mL
[21]; C3HeB/FeJ mice, PK model typical value (standard error)
  ka, absorption rate constant: 4.47 (21) h^−1
[21]; naïve C3HeB/FeJ mice, single oral PZA dose 150 mg/kg, average (SD)
  CmaxPZA: 190 (24) µg/mL
In vivo [22]
  AUC: 296 µg·h/mL
In vivo [6]
  AUC: 210 µg·h/mL
  CL/F: 12.5 mL/min/kg
  Vd/F: 1.28 L/kg
  k el: 0.000161 s⁻¹
In vivo [7]
  AUC: 388 µg·h/mL
In vivo [7]; female
  CL/F: 7.83 mL/min/kg
  Vd/F: 0.78 L/kg
  k el: 0.000167 s⁻¹
other
  concentrations at 24 h post PZA dosing: below the limit of quantification
In vivo [23]
  AUC: 580 µg·h/mL
  CL/F: 10.3 mL/min/kg
  Vd/F: 1.02 L/kg
  k el: 0.000169 s⁻¹
[8]; BALB/c mice, PK model typical value (standard error)
  ka, absorption rate constant: 18 (8) h^−1
[8]; BALB/c, mouse, in vivo
  human-equivalent PZA dose: 175 mg/kg
[8]; [25]
  CmaxPZA: 163 (38) µg/mL
[9]; [28]
  CL/F: 12.5 mL/min/kg
  Vd/F: 3.72 L/kg
  k el: 5.56e-05 s⁻¹
[9]; female, New Zealand white, rabbit, plasma, po, 300 mg/kg
  AUC: 457 µg·h/mL
[9]; naïve rabbits, calculated to achieve a target AUC of 450 mg·h/L
  human-equivalent PZA dose: 300 mg/kg
[9]; naïve rabbits, single oral PZA dose 300 mg/kg, average (SD)
  CmaxPZA: 82 (17) µg/mL
[9]; rabbits, PK model typical value (standard error)
  ka, absorption rate constant: 4.8 (2) h^−1
[10]; single dose
  CmaxPZA: 43 µg/mL
[10]; steady state
  CmaxPZA: 59 µg/mL
[10]; TB patients, PK model typical value (standard error)
  ka, absorption rate constant: 0.72 (18) h^−1
[10]; [26]
  clearance: 28.3 mL/min
  k el: 1.58e-05 s⁻¹
[10]; both, human, plasma, po
  AUC: 617 to 738 µg·h/mL
[10]; [29]
  CL/F: 0.467 mL/min/kg
  Vd/F: 0.49 L/kg
[12]
  human-equivalent PZA dose: 160 mg/kg
  ka, absorption rate constant: 220 (1) h^−1
[12]; po, 150 mg/kg
  CmaxPZA: 89 (20) µg/mL
[13]; CD1 mice, PK model typical value (standard error)
  ka, absorption rate constant: 15 (11) h^−1
[13]; naïve CD1 mice, single oral PZA dose 150 mg/kg, average (SD)
  CmaxPZA: 109 (11) µg/mL
[14]; across the pH range
  susceptibility of H37Rv compared with H37Ra: less susceptible to PZA than H37Ra

## Oc1ncnc2[nH]ncc12 [allopurinol]
Xanthine oxidase [11]
  AUC: 8 µg·h/mL

## O=c1[nH]c(=O)c2c[nH]nc2[nH]1 [oxypurinol]
Xanthine oxidase [11]
  AUC: 124 µg·h/mL
